Tests used:
[1] = tested on: rat ortholog of 12/15-LOX; conditions: cited from earlier work
[2] = cited from earlier work
[3] = tested on: dog ortholog of 12/15-LOX; conditions: cited from earlier work
[4] = target: T1, h12/15-LOX (Homo sapiens, UniProt P16050); assay: Lipoxygenase UV-Vis-based IC50 assay; type: biochemical; conditions: for loss of potency against h12/15-LOX relative to parent: SAR comparison of IC50 values
T1 sequence (P16050 1-662): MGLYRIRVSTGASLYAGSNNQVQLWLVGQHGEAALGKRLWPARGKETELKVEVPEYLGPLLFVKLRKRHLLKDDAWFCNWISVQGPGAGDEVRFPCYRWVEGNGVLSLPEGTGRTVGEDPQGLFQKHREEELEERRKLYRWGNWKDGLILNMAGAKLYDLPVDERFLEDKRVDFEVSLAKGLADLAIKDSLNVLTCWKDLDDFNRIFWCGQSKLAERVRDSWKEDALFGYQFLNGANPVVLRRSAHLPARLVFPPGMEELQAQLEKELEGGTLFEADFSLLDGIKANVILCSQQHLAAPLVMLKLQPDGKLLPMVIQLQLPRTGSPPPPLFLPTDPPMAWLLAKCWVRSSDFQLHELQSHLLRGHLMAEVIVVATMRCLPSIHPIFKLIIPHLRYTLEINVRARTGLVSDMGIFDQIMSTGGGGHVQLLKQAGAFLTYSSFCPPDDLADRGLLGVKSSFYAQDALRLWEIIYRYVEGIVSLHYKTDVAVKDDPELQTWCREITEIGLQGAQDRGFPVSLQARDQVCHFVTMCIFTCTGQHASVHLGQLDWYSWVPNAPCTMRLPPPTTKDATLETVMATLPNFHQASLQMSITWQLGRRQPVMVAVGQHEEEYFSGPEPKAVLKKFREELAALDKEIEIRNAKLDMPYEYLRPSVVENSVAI

[5] = tested on: HT-22 cells; assay: HT-22 cellular assay; type: cell-based; conditions: Mus musculus, HT-22, read-out: approximate cellular EC50 (ex vivo IC50) in HT-22
[6] = target: T1, h12/15-LOX; assay: Pseudoperoxidase assay; conditions: 20 µM inhibitor, 20 µM 13-HpODE, 60 nM enzyme
[7] = Solubility limit of inhibitor in enzyme assay; type: physicochemical; conditions: concentrations above 35 µM
[8] = target: T1, h12/15-LOX; assay: Steady-state inhibition kinetics
[9] = cited from earlier work; remark: listed apart in the source
[10] = cited from earlier work; remark: listed apart in the source
[11] = tested on: rabbit reticulocyte 12/15-LOX; conditions: cited from earlier work
[12] = target: T2, h5-LOX (Homo sapiens, UniProt P09917); assay: Selectivity assay; type: biochemical; conditions: read-out: inhibition of h5-LOX (positive control)
T2 sequence (P09917 1-674): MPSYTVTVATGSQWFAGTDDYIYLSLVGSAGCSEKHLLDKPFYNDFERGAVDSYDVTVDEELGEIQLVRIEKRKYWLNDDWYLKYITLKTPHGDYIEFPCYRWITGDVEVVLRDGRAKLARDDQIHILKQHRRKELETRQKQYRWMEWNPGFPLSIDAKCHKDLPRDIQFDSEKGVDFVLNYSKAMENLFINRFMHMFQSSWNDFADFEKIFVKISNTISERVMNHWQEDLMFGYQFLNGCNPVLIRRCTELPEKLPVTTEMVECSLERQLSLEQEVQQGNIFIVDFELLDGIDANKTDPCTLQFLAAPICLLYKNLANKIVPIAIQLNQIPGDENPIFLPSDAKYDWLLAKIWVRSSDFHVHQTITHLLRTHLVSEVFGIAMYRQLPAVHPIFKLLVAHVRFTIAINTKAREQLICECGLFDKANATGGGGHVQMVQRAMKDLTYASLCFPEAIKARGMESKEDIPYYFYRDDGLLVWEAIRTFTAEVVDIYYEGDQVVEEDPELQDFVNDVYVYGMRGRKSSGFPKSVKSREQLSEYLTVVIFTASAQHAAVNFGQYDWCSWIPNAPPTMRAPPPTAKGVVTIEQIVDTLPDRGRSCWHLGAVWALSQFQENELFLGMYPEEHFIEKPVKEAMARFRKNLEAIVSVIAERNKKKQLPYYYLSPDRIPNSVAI

O=C(Nc1ccc(F)cc1Cl)c1c[nH]nn1 [BLX-2477, N-(2-chloro-4-fluorophenyl)triazole-4-carboxamide]
potency against rat ortholog [1]: did not exhibit potency
off-target effects in mini-pigs [2]: adverse off-target effects
potency against dog ortholog [3]: did not exhibit potency

Cc1ccc(O)c(-c2cc(C(=O)NCc3ccccc3)[nH]n2)c1 [Compound 3]
loss of potency against h12/15-LOX relative to parent [4]: over 10 fold

COc1ccc(C(=O)c2c[nH]nc2-c2cc(C)ccc2O)cc1 [Compound 4]
loss of potency against h12/15-LOX relative to parent [4]: over 10 fold

Cc1ccc(-c2cc(-c3ccc(C)cc3O)[nH]n2)cc1 [Compound 18]
loss of potency against h12/15-LOX relative to parent [4]: greater than 15 fold

Cc1ccc(O)c(-c2cc(-c3ccccc3C)[nH]n2)c1 [Compound 99089]
EC50 [5]: ~10 µM
degradation of 13-HpODE (redox activity) [6]: not observed
solubility in assay buffer [7]: solubility problems
Ki [8]: 6 ± 3.3 µM
mode of inhibition ([8]; steady-state kinetics): mixed type inhibitor
inhibition at 20 µM ([4]; read-out: %Inhibition (20 µM), 20 µM inhibitor, 10 µM AA, 0.01% Triton X-100): > 90%

O=C(OCC#CCSc1nnc(-c2cccc3ccccc23)o1)c1cccs1 [ML094, 4-(5-(Naphthalen-1-yl)-1,3,4-oxadiazol-2-ylthio)but-2-ynylthiophene-2-carboxylate]
activity in cell-based assays [9]: lacks activity

CNc1oc(-c2cccc3ccccc23)nc1C#N [ML351, 5-(methylamino)-2-(naphthalene-1-yl)oxazole-4-carbonitrile]
in vivo activity in mice [10]: exhibits in vivo activity

c1ccc2c(c1)SCc1c-2[nH]c2ccccc12 [PD-146176]
IC50 [11]: 0.81 µM

CC(c1cc2ccccc2s1)N(O)C(N)=O (stereo not shown) [Zileuton]
inhibition at 20 µM [12]: 97%

— paper PMC4778748 (Bioorganic & medicinal chemistry, 2016)
